Common to all, as to type: cell-based
For one assay, the system named is NCI-H747. Put plainly: Cell viability (CellTiterGlo, 72 h), Example 1. The conditions noted are these: Homo sapiens, single agent. An excerpt: (§1) The colorectal cancer cell lines SW1417, COLO 205, LS411N, HT-29, RKO, OUMS-23, SW620, LoVo, SW480, SW837, COLO-678, LS123-NCI—H747, HCT-15, HCT116, DLD-1, T84, SW948, LS180, GP2d, HuTu 80, CW-2, SW48, NCI—H716, C2Bbe1, SNU—C1 and KM12 are obtained from the American Type Culture Collection (ATCC) and maintained in their respective culture medium as specified by the provider. These colorectal cancer cell lines have the following mutation status:
(§2) For assessment of combination effects, cells are seeded into 384-well plates at 500 cells/well and incubated overnight. The contents of the compound master plates are pre-diluted with 1:200 (1 μL compound solution to 200 μL cell […] culture medium containing 10% fetal clf serum) before transferring 5 μL of this pre-dilution to the cell plates containing 20 μL cell culture medium, to achieve the targeted final compound concentrations as well as a vehicle (DMSO) concentration of 0.09%.
(§3) Effects of single agents as well as their checkerboard combinations on cell viability are assessed after 72 hours of incubation at 37° C./5% CO2 by quantification of cellular ATP levels (CellTiterGlo, Promega) using 25 μL reagent/well and n=2 repliate plates per condition. The number/viability of cells at the time of compound addition was likewise assessed and used to estimate the population doubling time of the particular cell line. Single agent IC50s are calculated using standard four-parametric curve fitting (SLFit, model 205). Potential synergistic interactions between compound combinations are assessed using the Excess Inhibition 2D matrix according to the Loewe additivity model and are reported as Synergy Score. In addition, compound combinations are assessed by combination index analysis derived from isobologram graphs at 50% inhibition, and are reported as best combination index (CI), which corresponds to the lowest value on the isobologram. All synergy calculations are performed using CHALICE software (Lehár et al, Nat Biotechnol. (July 2009), 27(4): 69:66).
(In general: In ATP-based viability assays light output follows the ATP content of the culture.)

Another assay concerns COLO205. Put plainly: Cell viability (CellTiterGlo, 72 h), Example 1. The conditions noted are these: Homo sapiens, COLO 205, single agent.
Description: as §1, §2, §3

A further assay has as its system T84. Put plainly: Cell viability (CellTiterGlo, 72 h), Example 1. The note with it: Homo sapiens, duplicate data points and dose response display some scatter, single agent.
Description: as §1, §2, §3

The next assay concerns LS 180. Put plainly: Cell viability (CellTiterGlo, 72 h), Example 1. The note with it: Homo sapiens, LS180, single agent.
Description: as §1, §2, §3

The subject of another assay is HuTu 80. Put plainly: Cell viability (CellTiterGlo, 72 h), Example 1. The note with it: Homo sapiens, HuTu80, single agent.
Description: as §1, §2, §3

In another assay the test system is LS123. Put plainly: Cell viability (CellTiterGlo, 72 h), Example 1. The conditions noted are these: Homo sapiens, LS-123, single agent.
Description: as §1, §2, §3

Another assay deals with KM12. Put plainly: Cell viability (CellTiterGlo, 72 h), Example 1. The note with it: Homo sapiens, single agent.
Description: as §1, §2, §3

For assay [1], the system named is CRC and NSCLC cell lines that carry KRAS mutations. Nature of the assay: Cell proliferation assay (CellTiter-Glo, 72 hrs), dose matrix, Example 2, all six cell lines. The note with it: in the combination dose matrix. The procedure: The cell lines used in this study were purchased from American Type Cell Collection, including non-small cell lung cancer cell lines NCI—H23 & NCI—H2122 (which carry both KRAS and LKB1 mutations), NCI—H358 (which carries KRAS mutation), NCI—H460 (which carries KRAS, LKB1 and PIK3CA mutations), and Colorectal Cancer cell line SW480 (which carries KRAS mutation), HCT-15 (which carries KRAS PIK3CA mutations). All the cell lines were cultured at 37° C. in a 5% CO2 incubator in RPMI 1640 (ATCC #30-2001) media complemented with 10% fetal bovine serum, 2 mmol/L glutamine and 1% sodium pyruvate.
Cell viability was determined by measuring cellular ATP content using the CellTiter-Glo® Luminescent Cell Viability Assay (Promega #G7573) according to manufacturer's protocol. Briefly, 500-900 cells/well were plated on clear-bottom 384-well black plates (Greiner#781091) in quadruplicates or duplicates with 30 ul/well growth media, cells were allowed to attach overnight and followed by 72 hrs of incubation with various concentration of drugs or drug combinations (10 ul/well), at the end of the drug treatment, 30 ul/well of the CellTiter-Glo regent were added to each well to lyse the cells, and luminescence signals were recorded on a Envision plate reader. […]

For assay [2], the system named is colorectal cancer cell lines. Put plainly: Cell viability (CellTiterGlo, 72 h), Example 1, whole panel. The conditions noted are these: repeat experiments (*) excluded.
Description: as §1, §2
as §3, with “[…]). Interpretation of values for combination index and synergy score are provided below:” for “69:66).”
Pairwise multiple comparisons of the result groups are performed by one-way ANOVA (Neuman-Keuls method) using GraphPad Prism 5 (GraphPad Software Inc.). Results

Like-named read-outs stand apart in the source and are kept apart here. Bounds are passed on as bounds.

Regarding `Cn1cnc2c(F)c(Nc3ccc(Br)cc3F)c(C(=O)NOCCO)cc21` [COMPOUND B, 6-(4-bromo-2-fluorophenylamino)-7-fluoro-3-methyl-3H-benzoimidazole-5-carboxylic acid (2-hydroxyethoxy)-amide], the IC50 (commonly the midpoint of a concentration-inhibition curve) with NCI-H747 (read-out: Cmpd. B IC50) is 0.153 µM; in the assay with COLO205 (read-out: Cmpd. B IC50), 0.0344 µM; in the assay with T84 (read-out: Cmpd. B IC50), 12.8 µM; in the assay on LS 180 (read-out: Cmpd. B IC50), 0.143 µM; with HuTu 80 (read-out: Cmpd. B IC50), > 2.7 µM; in the assay with LS123 (read-out: Cmpd. B IC50) it was 2.28 µM. The half-maximal inhibitory concentration (IC50) was 0.339 µM in the assay with KM12 (read-out: Cmpd. B IC50); 1.16 µM in [2] (Mean over colorectal cell lines, read-out: Mean Cmpd. B IC50); 0.076 µM in [2] (Median over colorectal cell lines, read-out: Median Cmpd. B IC50). Also, in [1], the “doses at which synergistic regions are typically observed” value is on record as ≥ 80 nM.

For `Cc1nc(NC(=O)N2CCC[C@H]2C(N)=O)sc1-c1ccnc(C(C)(C)C(F)(F)F)c1` [COMPOUND A, (S)-pyrrolidine-1,2-dicarboxylic acid 2-amide 1-({4-methyl-5-[2-(2,2,2-trifluoro-1,1-dimethyl-ethyl)-pyridin-4-yl]-thiazol-2-yl}-amide)], the concentration for half-maximal inhibition (IC50) with NCI-H747 (read-out: Cmpd. A IC50) was 6.21 µM; with COLO205 (read-out: Cmpd. A IC50), > 10.8 µM; in the assay with T84 (read-out: Cmpd. A IC50) it was 4.16 µM; in the assay with LS 180 (read-out: Cmpd. A IC50), 5.08 µM; in the assay on HuTu 80 (read-out: Cmpd. A IC50), 8.84 µM; with LS123 (read-out: Cmpd. A IC50), 7.25 µM. Also, the IC50 with KM12 (read-out: Cmpd. A IC50) was > 10.8 µM; in assay [2] (Mean over colorectal cell lines, read-out: Mean Cmpd. A IC50), 7.51 µM; in assay [2] (Median over colorectal cell lines, read-out: Median Cmpd. A IC50), 8.66 µM. For the same compound, the “doses at which synergistic regions are typically observed” value in [1] is “above 150 nM”.
